Assay results as given in US20260048047A1, “SMALL-MOLECULE ACTIVATORS OF MYCOBACTERIUM TUBERCULOSIS ADENYLYL CYCLASE” (priority 2022, published 2026).

Test system: M. tuberculosis
Test: Extracellular activity against M. tuberculosis in cholesterol media (Alamar Blue reduction assay)
Type: cell-based, Mycobacterium tuberculosis
Conditions: Mycobacterium tuberculosis, 240 h, 7H12-Cholesterol media, 10 days; read-out: Cholesterol broth: alamar blue--EC50

## Cc1noc(CC(=O)N2CC3CC2CC3c2nc(C3CCC(F)(F)CC3)no2)n1 (stereo not shown) [Compound 191, 1-(5-(3-(4,4-difluorocyclohexyl)-1,2,4-oxadiazol-5-yl)-2-azabicyclo[2.2.1]heptan-2-yl)-2-(3-methyl-1,2,4-oxadiazol-5-yl)ethan-1-one]
  EC50: > 10000 nM

## Cc1noc(CC(=O)N2CC3CC2CC3c2nc(-c3ccc(F)c(F)c3)no2)n1 (stereo not shown) [Compound 192, 1-(5-(3-(3,4-difluorophenyl)-1,2,4-oxadiazol-5-yl)-2-azabicyclo[2.2.1]heptan-2-yl)-2-(3-methyl-1,2,4-oxadiazol-5-yl)ethan-1-one]
  EC50: > 10000 nM

## Cc1noc(CC(=O)N2CC3CC2CC3c2nc(-c3ccc(F)cc3)no2)n1 (stereo not shown) [Compound 193, 1-(5-(3-(4-fluorophenyl)-1,2,4-oxadiazol-5-yl)-2-azabicyclo[2.2.1]heptan-2-yl)-2-(3-methyl-1,2,4-oxadiazol-5-yl)ethan-1-one]
  EC50: > 10000 nM

## Cc1nonc1CC(=O)N1CC2CC1CC2c1nc(C2CCCCC2)no1 (stereo not shown) [Compound 194, 1-(5-(3-cyclohexyl-1,2,4-oxadiazol-5-yl)-2-azabicyclo[2.2.1]heptan-2-yl)-2-(4-methyl-1,2,5-oxadiazol-3-yl)ethan-1-one]
  EC50: 790 nM

## Cc1nonc1CC(=O)N1CC2CC1CC2c1nc(-c2ccc(Cl)c(Cl)c2)no1 (stereo not shown) [Compound 195, 1-(5-(3-(3,4-dichlorophenyl)-1,2,4-oxadiazol-5-yl)-2-azabicyclo[2.2.1]heptan-2-yl)-2-(4-methyl-1,2,5-oxadiazol-3-yl)ethan-1-one]
  EC50: 94 nM

## Cc1nonc1CC(=O)N1CC2CC1CC2c1nc(C2CCC(F)(F)CC2)no1 (stereo not shown) [Compound 196, 1-(5-(3-(4,4-difluorocyclohexyl)-1,2,4-oxadiazol-5-yl)-2-azabicyclo[2.2.1]heptan-2-yl)-2-(4-methyl-1,2,5-oxadiazol-3-yl)ethan-1-one]
  EC50: 1250 nM

## Cc1nonc1CC(=O)N1CC2CC1CC2c1nc(C2CCC(F)C2)no1 (stereo not shown) [Compound 197, 1-(5-(3-(3-fluorocyclopentyl)-1,2,4-oxadiazol-5-yl)-2-azabicyclo[2.2.1]heptan-2-yl)-2-(4-methyl-1,2,5-oxadiazol-3-yl)ethan-1-one]
  EC50: 15500 nM

## Cc1nonc1CC(=O)N1CC2CC1CC2c1nc(-c2ccc(F)c(F)c2)no1 (stereo not shown) [Compound 198, 1-(5-(3-(3,4-difluorophenyl)-1,2,4-oxadiazol-5-yl)-2-azabicyclo[2.2.1]heptan-2-yl)-2-(4-methyl-1,2,5-oxadiazol-3-yl)ethan-1-one]
  EC50: 247 nM

## Cc1nonc1CC(=O)N1CC2CC1CC2c1nc(-c2ccc(F)cc2)no1 (stereo not shown) [Compound 199, 1-(5-(3-(4-fluorophenyl)-1,2,4-oxadiazol-5-yl)-2-azabicyclo[2.2.1]heptan-2-yl)-2-(4-methyl-1,2,5-oxadiazol-3-yl)ethan-1-one]
  EC50: 324 nM

## Cn1ncnc1CC(=O)N1CC2CC1CC2c1nc(-c2ccc(Cl)cc2)no1 (stereo not shown) [Compound 200, 1-(5-(3-(4-chlorophenyl)-1,2,4-oxadiazol-5-yl)-2-azabicyclo[2.2.1]heptan-2-yl)-2-(1-methyl-1H-1,2,4-triazol-5-yl)ethan-1-one]
  EC50: 370 nM

## Cn1ncnc1CC(=O)N1CC2CC1CC2c1nc(-c2ccc(Cl)c(F)c2)no1 (stereo not shown) [Compound 201, 1-(5-(3-(4-chloro-3-fluorophenyl)-1,2,4-oxadiazol-5-yl)-2-azabicyclo[2.2.1]heptan-2-yl)-2-(1-methyl-1H-1,2,4-triazol-5-yl)ethan-1-one]
  EC50: 200 nM

## Cn1ncnc1CC(=O)N1CC2CC1CC2c1nc(-c2ccc(Cl)cc2F)no1 (stereo not shown) [Compound 204, 1-(5-(3-(4-chloro-2-fluorophenyl)-1,2,4-oxadiazol-5-yl)-2-azabicyclo[2.2.1]heptan-2-yl)-2-(1-methyl-1H-1,2,4-triazol-5-yl)ethan-1-one]
  EC50: 740 nM

## Cn1ncnc1CC(=O)N1CC2CC1CC2c1nc(-c2ccc(F)cc2)no1 (stereo not shown) [Compound 205, 1-(5-(3-(4-fluorophenyl)-1,2,4-oxadiazol-5-yl)-2-azabicyclo[2.2.1]heptan-2-yl)-2-(1-methyl-1H-1,2,4-triazol-5-yl)ethan-1-one]
  EC50: 1600 nM

## Cc1noc(CC(=O)N2CC3CC(C2)C3c2nc(-c3ccc(Cl)c(Cl)c3)no2)n1 (stereo not shown) [Compound 206, 1-(6-(3-(3,4-dichlorophenyl)-1,2,4-oxadiazol-5-yl)-3-azabicyclo[3.1.1]heptan-3-yl)-2-(3-methyl-1,2,4-oxadiazol-5-yl)ethan-1-one]
  EC50: > 10000 nM

## Cc1noc(CC(=O)N2CC3CC(C2)C3c2nc(C3CCC(F)(F)CC3)no2)n1 (stereo not shown) [Compound 207, 1-(6-(3-(4,4-difluorocyclohexyl)-1,2,4-oxadiazol-5-yl)-3-azabicyclo[3.1.1]heptan-3-yl)-2-(3-methyl-1,2,4-oxadiazol-5-yl)ethan-1-one]
  EC50: > 10000 nM

## Cc1noc(CC(=O)N2CC3CC(C2)C3c2nc(-c3ccc(F)c(F)c3)no2)n1 (stereo not shown) [Compound 208, 1-(6-(3-(3,4-difluorophenyl)-1,2,4-oxadiazol-5-yl)-3-azabicyclo[3.1.1]heptan-3-yl)-2-(3-methyl-1,2,4-oxadiazol-5-yl)ethan-1-one]
  EC50: ≥ 10000 nM

## Cc1noc(CC(=O)N2CC3CC(C2)C3c2nc(-c3ccc(F)cc3)no2)n1 (stereo not shown) [Compound 209, 1-(6-(3-(4-fluorophenyl)-1,2,4-oxadiazol-5-yl)-3-azabicyclo[3.1.1]heptan-3-yl)-2-(3-methyl-1,2,4-oxadiazol-5-yl)ethan-1-one]
  EC50: ≥ 10000 nM

## Cc1nocc1CC(=O)N1CC2CC(C1)C2c1nc(-c2ccc(F)cc2)no1 (stereo not shown) [Compound 210, 1-(6-(3-(4-fluorophenyl)-1,2,4-oxadiazol-5-yl)-3-azabicyclo[3.1.1]heptan-3-yl)-2-(3-methylisoxazol-4-yl)ethan-1-one]
  EC50: ≥ 25000 nM

## Cc1nonc1CC(=O)N1CC2CC(C1)C2c1nc(C2CCC(C)(F)CC2)no1 (stereo not shown) [Compound 211, 1-(6-(3-(4-fluoro-4-methylcyclohexyl)-1,2,4-oxadiazol-5-yl)-3-azabicyclo[3.1.1]heptan-3-yl)-2-(4-methyl-1,2,5-oxadiazol-3-yl)ethan-1-one]
  EC50: 3760 nM

## Cc1nonc1CC(=O)N1CC2CC(C1)C2c1nc(-c2ccc(Cl)c(Cl)c2)no1 (stereo not shown) [Compound 212, 1-(6-(3-(3,4-dichlorophenyl)-1,2,4-oxadiazol-5-yl)-3-azabicyclo[3.1.1]heptan-3-yl)-2-(4-methyl-1,2,5-oxadiazol-3-yl)ethan-1-one]
  EC50: 5010 nM

## Cc1nonc1CC(=O)N1CC2CC(C1)C2c1nc(C2CCC(F)(F)CC2)no1 (stereo not shown) [Compound 213, 1-(6-(3-(4,4-difluorocyclohexyl)-1,2,4-oxadiazol-5-yl)-3-azabicyclo[3.1.1]heptan-3-yl)-2-(4-methyl-1,2,5-oxadiazol-3-yl)ethan-1-one]
  EC50: 488 nM

## Cc1nonc1CC(=O)N1CC2CC(C1)C2c1nc(-c2ccc(F)c(F)c2)no1 (stereo not shown) [Compound 214, 1-(6-(3-(3,4-difluorophenyl)-1,2,4-oxadiazol-5-yl)-3-azabicyclo[3.1.1]heptan-3-yl)-2-(4-methyl-1,2,5-oxadiazol-3-yl)ethan-1-one]
  EC50: 5050 nM

## Cc1nonc1CC(=O)N1CC2CC(C1)C2c1nc(-c2ccc(F)cc2)no1 (stereo not shown) [Compound 215, 1-(6-(3-(4-fluorophenyl)-1,2,4-oxadiazol-5-yl)-3-azabicyclo[3.1.1]heptan-3-yl)-2-(4-methyl-1,2,5-oxadiazol-3-yl)ethan-1-one]
  EC50: 132 nM

## Cn1ncnc1CC(=O)N1CC2CC(C1)C2c1nc(-c2ccc(Cl)c(Cl)c2)no1 (stereo not shown) [Compound 216, 1-(6-(3-(3,4-dichlorophenyl)-1,2,4-oxadiazol-5-yl)-3-azabicyclo[3.1.1]heptan-3-yl)-2-(1-methyl-1H-1,2,4-triazol-5-yl)ethan-1-one]
  EC50: > 10000 nM

## Cn1ncnc1CC(=O)N1C[C@H]2C[C@@H](C1)[C@@H]2c1nc(-c2ccc(Cl)c(Cl)c2)no1 [Compound 217, 1-((1R,5S,6r)-6-(3-(3,4-dichlorophenyl)-1,2,4-oxadiazol-5-yl)-3-azabicyclo[3.1.1]heptan-3-yl)-2-(1-methyl-1H-1,2,4-triazol-5-yl)ethan-1-one]
  EC50: 100 nM

## Cn1ncnc1CC(=O)N1C[C@H]2C[C@@H](C1)[C@H]2c1nc(-c2ccc(Cl)c(Cl)c2)no1 [Compound 218, 1-((1R,5S,6s)-6-(3-(3,4-dichlorophenyl)-1,2,4-oxadiazol-5-yl)-3-azabicyclo[3.1.1]heptan-3-yl)-2-(1-methyl-1H-1,2,4-triazol-5-yl)ethan-1-one]
  EC50: > 10000 nM

## Cn1ncnc1CC(=O)N1C[C@H]2C[C@@H](C1)[C@H]2c1nc(-c2ccc(Cl)cc2)no1 [Compound 219, 1-((1R,5S,6s)-6-(3-(4-chlorophenyl)-1,2,4-oxadiazol-5-yl)-3-azabicyclo[3.1.1]heptan-3-yl)-2-(1-methyl-1H-1,2,4-triazol-5-yl)ethan-1-one]
  EC50: > 10000 nM

## Cn1ncnc1CC(=O)N1C[C@H]2C[C@@H](C1)[C@@H]2c1nc(-c2ccc(Cl)cc2)no1 [Compound 220, 1-((1R,5S,6r)-6-(3-(4-chlorophenyl)-1,2,4-oxadiazol-5-yl)-3-azabicyclo[3.1.1]heptan-3-yl)-2-(1-methyl-1H-1,2,4-triazol-5-yl)ethan-1-one]
  EC50: 140 nM

## Cn1ncnc1CC(=O)N1C[C@H]2C[C@@H](C1)[C@@H]2c1nc(-c2ccc(Cl)c(F)c2)no1 [Compound 221, 1-((1R,5S,6r)-6-(3-(4-chloro-3-fluorophenyl)-1,2,4-oxadiazol-5-yl)-3-azabicyclo[3.1.1]heptan-3-yl)-2-(1-methyl-1H-1,2,4-triazol-5-yl)ethan-1-one]
  EC50: 100 nM

## Cn1ncnc1CC(=O)N1C[C@H]2C[C@@H](C1)[C@H]2c1nc(-c2ccc(Cl)c(F)c2)no1 [Compound 222, 1-((1R,5S,6s)-6-(3-(4-chloro-3-fluorophenyl)-1,2,4-oxadiazol-5-yl)-3-azabicyclo[3.1.1]heptan-3-yl)-2-(1-methyl-1H-1,2,4-triazol-5-yl)ethan-1-one]
  EC50: > 10000 nM

## Cn1ncnc1CC(=O)N1C[C@H]2C[C@@H](C1)[C@@H]2c1nc(-c2ccc(Cl)cc2F)no1 [Compound 223, 1-((1R,5S,6r)-6-(3-(4-chloro-2-fluorophenyl)-1,2,4-oxadiazol-5-yl)-3-azabicyclo[3.1.1]heptan-3-yl)-2-(1-methyl-1H-1,2,4-triazol-5-yl)ethan-1-one]
  EC50: 290 nM
